From ChEMBL document CHEMBL4483862, “Open-source discovery of chemical leads for next-generation chemoprotective antimalarials” (2018)

Test system: Plasmodium berghei
Experiment: Luciferase/luciferin-expressing antifolate-resistant parasites were used to infect a culture of HepG2 cells that were pre-incubated with compounds. Infected hepatocytes emit light due to the luciferase reaction. Assay results are presented as the percent inhibition of light emission compared to control. […]
Type: functional
Settings: sporozoite; for IC90: read-out: LUCIFERASE INFECTION ASSAY - IC90

SMILES	IC90 [µM]	other results
CCOC(=O)c1c(C)nn(-c2ccc(NC(=O)c3cccs3)cc2)c1C	5.59	IC50 (PBLUC_HILL_SLOPE 1.61, PBLUC_R_SQUARED 0.613, read-out: LUCIFERASE INFECTION ASSAY - IC50): 1.43 µM
Cc1ccccc1-n1c(C)cc(/C=C(\C#N)C(=O)NCC2CCCO2)c1C (stereo not given)	6.25	IC50 (PBLUC_HILL_SLOPE 1.57, PBLUC_R_SQUARED 0.725, read-out: LUCIFERASE INFECTION ASSAY - IC50): 1.55 µM
Cc1ccc2nc(-c3ccc(NC(=O)CN4C(=O)NC(C)(c5ccc(OC(F)F)cc5)C4=O)cc3)sc2c1 (stereo not given)	> 10	IC50 (PBLUC_HILL_SLOPE 1.6, PBLUC_R_SQUARED 0.077, read-out: LUCIFERASE INFECTION ASSAY - IC50): > 10 µM
CS(=O)(=O)c1ccc2nc(NC(=O)c3cc(-c4ccccc4)nn3-c3ccccc3)sc2c1	> 10	IC50 (PBLUC_HILL_SLOPE 1.63, PBLUC_R_SQUARED 0.444, read-out: LUCIFERASE INFECTION ASSAY - IC50): 4.67 µM
S=C(NCCc1csc2ccccc12)Nc1ccc(Cl)cc1	> 9.51	IC50 (PBLUC_HILL_SLOPE 1.56, PBLUC_R_SQUARED 0.124, read-out: LUCIFERASE INFECTION ASSAY - IC50): > 9.51 µM
Cc1ccc(SCc2ccc(-c3nc4ccccc4s3)cc2)cc1	> 9.5	IC50 (PBLUC_HILL_SLOPE 1.56, PBLUC_R_SQUARED 0.316, read-out: LUCIFERASE INFECTION ASSAY - IC50): 4.39 µM
Cc1ccc(-n2c(C)cc(C(=O)COC(=O)c3cccn3C)c2C)cc1	> 10	IC50 (PBLUC_HILL_SLOPE 1.64, PBLUC_R_SQUARED 0.0485, read-out: LUCIFERASE INFECTION ASSAY - IC50): 5.54 µM
CC(=O)NC12CC3CC(C1)CC(C(=O)Nc1ccc4c(c1)-c1ccccc1C4)(C3)C2	5.37	IC50 (PBLUC_HILL_SLOPE 1.58, PBLUC_R_SQUARED 0.82, read-out: LUCIFERASE INFECTION ASSAY - IC50): 1.34 µM
O=C(CN(Cc1ccco1)S(=O)(=O)c1ccccc1F)Nc1ccc(SC(F)F)cc1	> 10	IC50 (PBLUC_HILL_SLOPE 1.6, PBLUC_R_SQUARED 0.718, read-out: LUCIFERASE INFECTION ASSAY - IC50): 3.47 µM
Cc1c(S(=O)(=O)c2ccc(Cl)cc2)csc1C(=O)NCc1ccco1	> 8.34	IC50 (PBLUC_HILL_SLOPE 1.58, PBLUC_R_SQUARED 0.729, read-out: LUCIFERASE INFECTION ASSAY - IC50): 2.88 µM
N=C(N)N/N=C\c1cccc2ccccc12	> 15.5	IC50 (PBLUC_HILL_SLOPE 1.61, PBLUC_R_SQUARED 0.436, read-out: LUCIFERASE INFECTION ASSAY - IC50): 6.92 µM
CC(=O)c1cccc(-c2cnc3cnc(-c4cccc(C(N)=O)c4)cn23)c1	> 9.26	IC50 (PBLUC_HILL_SLOPE 1.58, PBLUC_R_SQUARED 0.572, read-out: LUCIFERASE INFECTION ASSAY - IC50): 3.69 µM
C#CCNS(=O)(=O)c1ccc(C(=O)Nc2ccccc2O)cc1	7.83	IC50 (PBLUC_HILL_SLOPE 1.57, PBLUC_R_SQUARED 0.611, read-out: LUCIFERASE INFECTION ASSAY - IC50): 1.93 µM
COC(=O)c1c(-c2ccccc2Cl)noc1/C=C/c1c[nH]c(=O)c2c(-c3ccccc3Cl)noc12	> 6.49	IC50 (PBLUC_HILL_SLOPE 1.63, PBLUC_R_SQUARED 0.42, read-out: LUCIFERASE INFECTION ASSAY - IC50): 3.61 µM
CNc1nc2cnc(-c3cccc4ccccc34)cc2n1-c1ccccc1	> 10	IC50 (PBLUC_HILL_SLOPE 1.54, PBLUC_R_SQUARED 0.64, read-out: LUCIFERASE INFECTION ASSAY - IC50): 4.99 µM
COc1ccc(C(=O)Nc2ccc3nc(-c4cc(OC)c(OC)c(OC)c4)nn3c2)cc1OC	4.55	IC50 (PBLUC_HILL_SLOPE 1.61, PBLUC_R_SQUARED 0.589, read-out: LUCIFERASE INFECTION ASSAY - IC50): 1.17 µM
Cc1ccc(C)c(NC(=S)[C-](C(=O)c2ccc3c(c2)OCCO3)[n+]2ccccc2)c1	> 10	IC50 (PBLUC_HILL_SLOPE 1.61, PBLUC_R_SQUARED 0.831, read-out: LUCIFERASE INFECTION ASSAY - IC50): 5.38 µM
CCNC(=O)c1nn(Cc2ccccc2)c2c1CC(NCC(C)C)CC2 (stereo not given)	> 9.31	IC50 (PBLUC_HILL_SLOPE 1.56, PBLUC_R_SQUARED 0.224, read-out: LUCIFERASE INFECTION ASSAY - IC50): 6.64 µM
CC1CCN(CCOc2ccc(-c3n[nH]cc3-c3ccccc3)c(O)c2)CC1	> 8.74	IC50 (PBLUC_HILL_SLOPE 1.57, PBLUC_R_SQUARED 0.734, read-out: LUCIFERASE INFECTION ASSAY - IC50): > 8.74 µM
O=C(Nc1ccccc1O)c1ccc(Cn2ccnc2)cc1	6.19	IC50 (PBLUC_HILL_SLOPE 1.6, PBLUC_R_SQUARED 0.598, read-out: LUCIFERASE INFECTION ASSAY - IC50): 1.57 µM

SMILES	IC90 [µM]	other results
CN1/C(=C\C(=O)COC(=O)C2Cc3ccccc3CN2C(=O)c2ccccc2)C(C)(C)c2ccccc21 (stereo not given)	> 10	IC50 (PBLUC_HILL_SLOPE 1.63, PBLUC_R_SQUARED 0.576, read-out: LUCIFERASE INFECTION ASSAY - IC50): 3.35 µM
O=C(Nc1ccccc1)ON=C1CC2CCCC(C1)N2Cc1ccccc1	> 9.08	IC50 (PBLUC_HILL_SLOPE 1.59, PBLUC_R_SQUARED 0.239, read-out: LUCIFERASE INFECTION ASSAY - IC50): > 9.08 µM
FC(F)(F)c1ccnc(N2CCN(C(c3ccccc3)c3ccccc3)CC2)c1	> 8.3	IC50 (PBLUC_HILL_SLOPE 1.54, PBLUC_R_SQUARED 0.0984, read-out: LUCIFERASE INFECTION ASSAY - IC50): > 8.3 µM
Cc1nc(C(F)(F)F)nc(NCc2ccc(Cl)cc2)c1C	> 10.5	IC50 (PBLUC_HILL_SLOPE 1.61, PBLUC_R_SQUARED 0.626, read-out: LUCIFERASE INFECTION ASSAY - IC50): 3.42 µM
CC(C)c1cc(C(=O)N2CCc3c(cc(-c4cccc(F)c4)c(=O)n3CCN3CCCCC3)C2)[nH]n1	> 6.71	IC50 (PBLUC_HILL_SLOPE 1.58, PBLUC_R_SQUARED 0.377, read-out: LUCIFERASE INFECTION ASSAY - IC50): 1.78 µM
O=C(NC1CC1)c1ccc(CN(C2CC2)S(=O)(=O)/C=C/c2ccccc2)cc1	4.03	IC50 (PBLUC_HILL_SLOPE 1.61, PBLUC_R_SQUARED 0.829, read-out: LUCIFERASE INFECTION ASSAY - IC50): 1.03 µM
Clc1ccc2c(NCc3ccc(-n4cccn4)nc3)ncnc2c1	> 10	IC50 (PBLUC_HILL_SLOPE 1.57, PBLUC_R_SQUARED 0.509, read-out: LUCIFERASE INFECTION ASSAY - IC50): 3.37 µM
CCOC(=O)c1c(C)[nH]c(C(=O)Nc2ccnn2Cc2ccc(Cl)cc2Cl)c1C	> 10	IC50 (PBLUC_HILL_SLOPE 1.6, PBLUC_R_SQUARED 0.586, read-out: LUCIFERASE INFECTION ASSAY - IC50): 3.97 µM
COc1ncccc1-c1cc2c(cn1)nc(Nc1cccc(C(F)(F)F)c1)n2C	> 10	IC50 (PBLUC_HILL_SLOPE 1.56, PBLUC_R_SQUARED 0.782, read-out: LUCIFERASE INFECTION ASSAY - IC50): 2.89 µM
CC(NCc1ccc(-c2ccccc2)s1)c1ccc(-n2ccnc2)cc1 (stereo not given)	> 10	IC50 (PBLUC_HILL_SLOPE 1.59, PBLUC_R_SQUARED 0.529, read-out: LUCIFERASE INFECTION ASSAY - IC50): 7.08 µM
Cc1nc2ccc(NC(=O)c3ccc4[nH]c(C)c(C)c4c3)cc2s1	> 9.84	IC50 (PBLUC_HILL_SLOPE 1.58, PBLUC_R_SQUARED 0.399, read-out: LUCIFERASE INFECTION ASSAY - IC50): > 9.84 µM
CCOC(=O)N1CCC(NCC(O)COc2ccc(C(C)(C)C)cc2)CC1 (stereo not given)	> 10	IC50 (PBLUC_HILL_SLOPE 1.54, PBLUC_R_SQUARED 0.688, read-out: LUCIFERASE INFECTION ASSAY - IC50): 4.08 µM
CNc1nc2cnc(-c3ccc(F)c(Cl)c3)cc2n1Cc1ccc(OC)c(OC)c1	3.93	IC50 (PBLUC_HILL_SLOPE 1.59, PBLUC_R_SQUARED 0.826, read-out: LUCIFERASE INFECTION ASSAY - IC50): 0.992 µM
O=C(NCc1ccc(Cn2ccnc2)cc1)c1csc(-c2cccs2)n1	> 10	IC50 (PBLUC_HILL_SLOPE 1.64, PBLUC_R_SQUARED 0.565, read-out: LUCIFERASE INFECTION ASSAY - IC50): 6.98 µM
COc1ccc(NC(C(=O)Nc2cccc(C(F)(F)F)c2)c2ccccc2)cc1OC (stereo not given)	> 10	IC50 (PBLUC_HILL_SLOPE 1.54, PBLUC_R_SQUARED 0.609, read-out: LUCIFERASE INFECTION ASSAY - IC50): 5.09 µM
COc1ccc(N2C(=O)c3ccccc3C(C=NNC(=O)c3sc4ccccc4c3Cl)C2=O)cc1OC (stereo not given)	> 10	IC50 (PBLUC_HILL_SLOPE 1.6, PBLUC_R_SQUARED 0.564, read-out: LUCIFERASE INFECTION ASSAY - IC50): 3.85 µM
Nc1ccc(C(OC(=O)c2ccc(Cl)cc2Cl)(C(F)(F)F)C(F)(F)F)cc1	> 10	IC50 (PBLUC_HILL_SLOPE 1.55, PBLUC_R_SQUARED 0.496, read-out: LUCIFERASE INFECTION ASSAY - IC50): 8.08 µM
COc1ccc(/C=C2\CCCC3C2=NN(C(=O)CSc2ccccn2)C3c2ccc(OC)cc2)cc1 (stereo not given)	9.76	IC50 (PBLUC_HILL_SLOPE 1.58, PBLUC_R_SQUARED 0.267, read-out: LUCIFERASE INFECTION ASSAY - IC50): 2.44 µM
Cc1ccc(S(=O)(=O)Nc2ccc(Nc3nccn4c(-c5ccc(OC(F)(F)F)cc5)cnc34)cc2)cc1	3.49	IC50 (PBLUC_HILL_SLOPE 1.58, PBLUC_R_SQUARED 0.687, read-out: LUCIFERASE INFECTION ASSAY - IC50): 0.867 µM
Cc1cc(C(=O)COC(=O)c2[nH]nc3ccccc23)c(C)n1Cc1cccs1	6.39	IC50 (PBLUC_HILL_SLOPE 1.56, PBLUC_R_SQUARED 0.399, read-out: LUCIFERASE INFECTION ASSAY - IC50): 1.56 µM
